Results as given in US8536120B2 (The Administrators of The Tulane Educational Fund, priority 2006, dated 2013).
Where a SMILES comes first, the peptide text is derived from it. Where no end group is shown, it is not given here. [ ]: non-standard residue; d: D form. dTrp(2-Me) = Cc1[nH]c2ccccc2c1C[C@@H](N)C(=O)O; d2Nal = N[C@H](Cc1ccc2ccccc2c1)C(=O)O

Experiments:
[1] = target: T1, human ghrelin receptor type 1a (GHS-R1a) (Homo sapiens, UniProt Q92847); test: Receptor binding: displacement of radiolabelled ghrelin on membranes of HEK-293 cells; details: read-out: binding affinities (Ki)
T1 construct: expressed in transfected cells; host or cells: HEK-293 cells (membranes)
T1 sequence (Q92847 whole entry): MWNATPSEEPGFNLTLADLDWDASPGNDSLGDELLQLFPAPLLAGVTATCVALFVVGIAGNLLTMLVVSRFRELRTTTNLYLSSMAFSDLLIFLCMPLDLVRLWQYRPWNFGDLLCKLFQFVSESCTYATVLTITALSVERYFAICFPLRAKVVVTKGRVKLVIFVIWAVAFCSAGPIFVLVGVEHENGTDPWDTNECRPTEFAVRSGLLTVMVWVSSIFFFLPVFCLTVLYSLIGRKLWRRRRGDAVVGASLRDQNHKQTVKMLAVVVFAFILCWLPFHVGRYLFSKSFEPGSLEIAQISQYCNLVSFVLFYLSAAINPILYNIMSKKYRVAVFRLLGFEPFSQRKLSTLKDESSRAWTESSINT

ghrelin receptor [2] = target: T2, ghrelin receptor (Rattus norvegicus, UniProt O08725); test: Spontaneous food intake in overnight-fasted rats after icv GHS-A; type: in vivo; details: 5 μg GHS-A icv; overnight-fasted animals; P<0.004 vs normal saline
T2 construct: from tissue; host or cells: whole animal (rat), i.c.v. or i.v. dosing
T2 sequence (O08725 whole entry): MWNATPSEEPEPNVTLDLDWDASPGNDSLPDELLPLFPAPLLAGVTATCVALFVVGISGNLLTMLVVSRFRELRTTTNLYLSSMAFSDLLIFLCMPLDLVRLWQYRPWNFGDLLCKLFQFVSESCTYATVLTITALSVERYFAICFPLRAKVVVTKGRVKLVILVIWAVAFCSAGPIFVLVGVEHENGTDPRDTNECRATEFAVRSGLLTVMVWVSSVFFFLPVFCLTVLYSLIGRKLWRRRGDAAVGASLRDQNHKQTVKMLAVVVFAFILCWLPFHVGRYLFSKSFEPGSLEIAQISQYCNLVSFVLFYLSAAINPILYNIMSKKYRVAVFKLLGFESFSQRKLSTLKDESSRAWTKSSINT
Method: (§1) Adult male Sprague Dawley rats (225-260 g) were purchased from Charles River Canada (St. Constant, Canada) and individually housed on a 12-h light, 12-h dark cycle (lights on, 0600-1800 h) in a temperature (22±1° C.)—and humidity-controlled room. Purina rat chow (Ralston Purina Co., St. Louis, Mo.) and tap water were available ad libitum.
Chronic intracerebroventricular (i.c.v.) and intracardiac venous cannulas were implanted under sodium pentobarbital (50 mg/kg, i.p.) anesthesia using previously described techniques in (2) and (11). […]
The effects of the GHS-A on both spontaneous and ghrelin-induced food intake and body weight gain were investigated. […] Food intake was monitored on an hourly basis for 5 h after the initial injection (until 1600 h) and subsequently overnight (1600-0900 h next morning). A measured amount of rat chow pellets was placed in the cage every hour. Spillage was collected by placement of a diaper under the rat cages, and total food consumed for each period was calculated by subtracting uneaten food plus spillage from total given. Body weights were recorded daily at 0900 h. The latency to the onset of the first meal after the injection and the duration of that meal were also monitored.

ghrelin receptor [3] = target: T2, ghrelin receptor; test: Ghrelin-induced GH release in free-moving adult male rats after GHS-A pretreatment (icv or iv); type: in vivo; details: vs normal saline; for Plasma GH response to ghrelin i.c.v.: 5 μg antagonist icv 15 min before 500 ng ghrelin icv
Method: as §1
(§2) Chronic intracerebroventricular (i.c.v.) and intracardiac venous cannulas were implanted under sodium pentobarbital (50 mg/kg, i.p.) anesthesia using previously described techniques in (2) and (11). The placement of the icv cannulae was verified by both a positive drinking response to i.c.v. carbachol (100 ng/10 μl) injection on the day after surgery and methylene blue dye at the time of death. After surgery, the rats were placed directly in isolation test chambers with food and H2O freely available until body weight returned to preoperative levels (usually within 5-7 d). During this time the rats were handled daily to minimize any stress associated with handling on the day of the experiment. On the test day, food was removed 1.5 h before the start of sampling and was returned at the end.
The efficacy of GHS-A to antagonize ghrelin's stimulatory action on GH at both central and peripheral sites was examined. […] (500 ng). Both the human ghrelin peptide (provided by Dr. K. Chang, Phoenix Pharmaceuticals, Inc., Belmont, Calif.) and the GHS-A were diluted in normal saline just before use. Blood samples (0.35 ml) were withdrawn every 15 min over a 6-h sampling period (1000-1600 h) from all animals. […] All blood samples were immediately centrifuged, and plasma was separated and stored at −20° C. for subsequent assay of GH. To avoid hemodynamic disturbance, the red blood cells were resuspended in normal saline and returned to the animal after removal of the next blood sample.
Blood samples were withdrawn from 1000-1600 h, as described above.

ghrelin receptor [4] = target: T2, ghrelin receptor; test: Spontaneous pulsatile GH secretion in free-moving rats after icv GHS-A; type: in vivo; details: 5 μg GHS-A icv; vs normal saline; P<0.01 or less
Method: as §1, §2
These time points were chosen because they correspond closely to the time of onset of the spontaneous GH secretory episodes, as previously documented in our laboratory (2, 4). […]

ghrelin receptor [5] = target: T2, ghrelin receptor; test: Ghrelin-stimulated food intake in rats after icv GHS-A; type: in vivo; details: 500 ng ghrelin icv, vs normal saline
Method: as §1, §2
Food intake was monitored on an hourly basis as described above. In this experiment, food was removed 1.5 h before the start of the test.

[6] = target: Ghrelin/GHRP/GHS Receptor (Rattus norvegicus, UniProt O08725); test: In vitro pituitary incubation method: GH release from isolated pituitary glands, peptide alone or plus stimulator; type: cell-based; set-up: from cell culture of pituitary cells; endogenous in cells; host or cells: dispersed primary rat anterior pituitary cells, 4 days in culture; details: Table 12; Stimulator *S = Tyr-DTrp-Ala-Trp-Dphe-NH2 alone 0.3 μg/ml
Ghrelin/GHRP/GHS Receptor, sequence (O08725 whole entry): as above
Method: The peptides were synthesized by the solid phase method and purified by HPLC. GH was determined by Radioimmunoassay (RIA).
Hormonal activities were obtained from in vitro studies using pituitaries of 20 day old CD-1 strain Sprague Dawley female rats. Two pituitaries were incubated for a total of 4-6 hours. Medium was removed each hour for RIA of GH level and fresh medium was added again. After two one hour preincubation periods (P1-P2), the vehicle/peptides were added to two one hour incubations (I3-I4). Peptide activity was calculated as the change in the hormonal level (delta) between I3+I4 and P2. For antagonist activity, the incubation was continued for 2 additional hours (I5-I6) where both the peptide and a stimulator of GH secretion was added and the antagonist activity was calculated as the change in the hormonal level (delta) between I5+I6 and P2. The peptides were assayed in triplicate and the hormone was assayed in duplicate. Each value recorded represents the mean of 6. The GH RIA reagents were distributed by the NIH. Control data was collected from isolated pituitary glands treated with only the corresponding vehicle in the absence of peptide or stimulator. Control stimulated data was collected from isolated pituitary glands treated with stimulator alone in the absence of any peptide.

## Cc1[nH]c2ccccc2c1C[C@@H](NC(=O)[C@@H](N)Cc1cnc[nH]1)C(=O)N[C@@H](C)C(=O)N[C@@H](Cc1c[nH]c2ccccc12)C(=O)N[C@H](Cc1ccccc1)C(=O)N[C@@H](CCCCN)C(N)=O [hexarelin] (H-H[dTrp(2-Me)]AW[dF]K-NH2)
[1]
  Ki: 0.59 nM

## H[d2Nal][dK]W[dF]K-NH2
Ghrelin receptor [2]
  Spontaneous food intake in the first hour after injection: significantly inhibited
Ghrelin receptor [3]
  Plasma GH response to ghrelin i.c.v.: virtually obliterated the GH response to ghrelin
Ghrelin receptor [3]; listed as GHS-A
  Plasma GH response to ghrelin i.c.v.: abolished the stimulatory action of ghrelin on GH release
Ghrelin receptor [3]; 250 μg antagonist iv 15 min before 5 μg ghrelin iv, listed as GHS-A
  Plasma GH response to ghrelin i.v.: strongly blocked ghrelin's ability to release GH
Ghrelin receptor [3]; GHS-A icv pretreatment, 500 ng ghrelin icv, P<0.0003 or less
  Reduction of GH AUC following i.c.v. ghrelin: 15 fold
Ghrelin receptor [3]; GHS-A iv pretreatment, 5 μg ghrelin iv, P<0.0003 or less
  Reduction of GH AUC following i.v. ghrelin: 5 fold
Ghrelin receptor [4]
  1-h GH AUC's of spontaneous GH secretory episodes at 1100 h and 1400 h, and overall 6-h GH AUC: significantly reduced
Ghrelin receptor [5]; 5 μg GHS-A icv
  Cumulative food intake after ghrelin: significantly suppressed for up to 5 h
Ghrelin receptor [5]; 5 μg antagonist icv, P<0.02 or less
  Ghrelin-stimulated food intake in the first hour after injections: significantly inhibited

## Tyr-DTrp-Ala-Trp-Dphe-NH2
[6]
  Stimulated Control GH release: 2218 ± 194 ng/mL
